Data as given in ChEMBL document CHEMBL3885861, “Open TG-GATES”.

Organism: Rattus norvegicus
Assay: Open TG-GATES - Regimen: Daily Repeat
Type: toxicity, organism-based, Sprague-Dawley
Design: regimen Daily Repeat, gender Male, age 6 weeks
Settings: in vivo, po, 30 mg/kg, route gavage, dose level High; for APTT / Bas / Eos / Fbg / Hb / Ht / Lym / MCH / MCHC / MCV / Mono / Neu / PT / Plat / RBC / Ret / WBC: tissue Blood; for KIDNEY_L / KIDNEY_R / KIDNEY_TOTAL: tissue Kidney; for LIVER: tissue Liver; for A/G / ALP / ALT / AST / BUN / CRE / Ca / Cl / DBIL / GLC / IP / K / LDH / Na / PL / RALB / TBIL / TC / TG / TP / gamma-GTP: tissue Plasma

C=CCO [ALLYL ALCOHOL]
TERMINAL_BW (72 h, time 3 day): 229 g | APTT (72 h, time 3 day): 18.4 s | Bas (72 h, time 3 day): 0% | Eos (72 h, time 3 day): 0.8% | Fbg (72 h, time 3 day): 258.6 mg/dL | Hb (72 h, time 3 day): 13.4 g/dL | Ht (72 h, time 3 day): 39.4% | Lym (72 h, time 3 day): 80% | MCH (72 h, time 3 day): 20.9 pg | MCHC (72 h, time 3 day): 33.9% | MCV (72 h, time 3 day): 61.7 fL | Mono (72 h, time 3 day): 3.4% | Neu (72 h, time 3 day): 15.2% | PT (72 h, time 3 day): 11.7 s | Plat (72 h, time 3 day): 142.1 x10_4/uL | RBC (72 h, time 3 day): 639.6 x10_4/ul | Ret (72 h, time 3 day): 4.7% | WBC (72 h, time 3 day): 128.3 x10_2/uL | KIDNEY_L (72 h, time 3 day): 1 g | KIDNEY_R (72 h, time 3 day): 1 g | KIDNEY_TOTAL (72 h, time 3 day): 2 g | LIVER (72 h, time 3 day): 11.1 g | A/G (72 h, time 3 day): 1.5 | ALP (72 h, time 3 day): 874.6 IU/L | ALT (72 h, time 3 day): 39.6 IU/L | AST (72 h, time 3 day): 71 IU/L | BUN (72 h, time 3 day): 13.6 mg/dL | CRE (72 h, time 3 day): 0.4 mg/dL | Ca (72 h, time 3 day): 10.5 mg/dL | Cl (72 h, time 3 day): 103.2 meq/L | DBIL (72 h, time 3 day): 0.058 mg/dL | GLC (72 h, time 3 day): 206.2 mg/dL | IP (72 h, time 3 day): 7.4 mg/dL | K (72 h, time 3 day): 3.5 meq/L | LDH (72 h, time 3 day): 221.2 IU/L | Na (72 h, time 3 day): 141.2 meq/L | PL (72 h, time 3 day): 125.4 mg/dL | RALB (72 h, time 3 day): 3 g/dL | TBIL (72 h, time 3 day): 0.1 mg/dL | TC (72 h, time 3 day): 73.2 mg/dL | TG (72 h, time 3 day): 59 mg/dL | TP (72 h, time 3 day): 5 g/dL | gamma-GTP (72 h, time 3 day): 1 IU/L | TERMINAL_BW ([…], time 7 day): 238.1 g | TERMINAL_BW ([…], time 14 day): 285 g | TERMINAL_BW ([…], time 28 day): 374.2 g | APTT ([…], time 7 day): 21.6 s | Bas ([…], time 7 day): 0% | Eos ([…], time 7 day): 0.8% | Fbg ([…], time 7 day): 334.8 mg/dL | Hb ([…], time 7 day): 14 g/dL | Ht ([…], time 7 day): 40.7% | Lym ([…], time 7 day): 74% | MCH ([…], time 7 day): 20.6 pg | MCHC ([…], time 7 day): 34.4% | MCV ([…], time 7 day): 60.2 fL | Mono ([…], time 7 day): 5.6% | Neu ([…], time 7 day): 18.2% | PT ([…], time 7 day): 13.1 s | Plat ([…], time 7 day): 146.5 x10_4/uL | RBC ([…], time 7 day): 676 x10_4/ul | Ret ([…], time 7 day): 3.1% | WBC ([…], time 7 day): 193.8 x10_2/uL | APTT ([…], time 14 day): 19.2 s | Bas ([…], time 14 day): 0% | Eos ([…], time 14 day): 0.8% | Fbg ([…], time 14 day): 250.6 mg/dL | Hb ([…], time 14 day): 13.7 g/dL | Ht ([…], time 14 day): 40% | Lym ([…], time 14 day): 70.2% | MCH ([…], time 14 day): 19.6 pg | MCHC ([…], time 14 day): 34.2% | MCV ([…], time 14 day): 57.3 fL | Mono ([…], time 14 day): 3.8% | Neu ([…], time 14 day): 24.8% | PT ([…], time 14 day): 12.4 s | Plat ([…], time 14 day): 192.6 x10_4/uL | RBC ([…], time 14 day): 698 x10_4/ul | Ret ([…], time 14 day): 5.4% | WBC ([…], time 14 day): 181.3 x10_2/uL | APTT ([…], time 28 day): 20.5 s | Bas ([…], time 28 day): 0% | Eos ([…], time 28 day): 1.2% | Fbg ([…], time 28 day): 218.6 mg/dL | Hb ([…], time 28 day): 15.2 g/dL | Ht ([…], time 28 day): 44.1% | Lym ([…], time 28 day): 78% | MCH ([…], time 28 day): 18.7 pg | MCHC ([…], time 28 day): 34.5% | MCV ([…], time 28 day): 54.3 fL | Mono ([…], time 28 day): 2.8% | Neu ([…], time 28 day): 17.2% | PT ([…], time 28 day): 12.1 s | Plat ([…], time 28 day): 107.4 x10_4/uL | RBC ([…], time 28 day): 813.2 x10_4/ul | Ret ([…], time 28 day): 2.8% | WBC ([…], time 28 day): 109.1 x10_2/uL | KIDNEY_L ([…], time 7 day): 1 g | KIDNEY_R ([…], time 7 day): 1.1 g | KIDNEY_TOTAL ([…], time 7 day): 2.1 g | KIDNEY_L ([…], time 14 day): 1.2 g | KIDNEY_R ([…], time 14 day): 1.2 g | KIDNEY_TOTAL ([…], time 14 day): 2.4 g | KIDNEY_L ([…], time 28 day): 1.3 g | KIDNEY_R ([…], time 28 day): 1.3 g | KIDNEY_TOTAL ([…], time 28 day): 2.6 g | LIVER ([…], time 7 day): 12.6 g | LIVER ([…], time 14 day): 14.4 g | LIVER ([…], time 28 day): 16.7 g | A/G ([…], time 7 day): 1.2 | ALP ([…], time 7 day): 938.4 IU/L | ALT ([…], time 7 day): 195.4 IU/L | AST ([…], time 7 day): 610 IU/L | BUN ([…], time 7 day): 11.4 mg/dL | CRE ([…], time 7 day): 0.4 mg/dL | Ca ([…], time 7 day): 10.6 mg/dL | Cl ([…], time 7 day): 102.4 meq/L | DBIL ([…], time 7 day): 0.088 mg/dL | GLC ([…], time 7 day): 182.4 mg/dL | IP ([…], time 7 day): 7 mg/dL | K ([…], time 7 day): 3.7 meq/L | LDH ([…], time 7 day): 310.6 IU/L | Na ([…], time 7 day): 140.6 meq/L | PL ([…], time 7 day): 130.8 mg/dL | RALB ([…], time 7 day): 3 g/dL | TBIL ([…], time 7 day): 0.2 mg/dL | TC ([…], time 7 day): 72.6 mg/dL | TG ([…], time 7 day): 62.8 mg/dL | TP ([…], time 7 day): 5.6 g/dL | gamma-GTP ([…], time 7 day): 2.6 IU/L | A/G ([…], time 14 day): 1.3 | ALP ([…], time 14 day): 758.4 IU/L | ALT ([…], time 14 day): 42.8 IU/L | AST ([…], time 14 day): 85.6 IU/L | BUN ([…], time 14 day): 14.2 mg/dL | CRE ([…], time 14 day): 0.4 mg/dL | Ca ([…], time 14 day): 10.7 mg/dL | Cl ([…], time 14 day): 101.8 meq/L | DBIL ([…], time 14 day): 0.07 mg/dL | GLC ([…], time 14 day): 202.6 mg/dL | IP ([…], time 14 day): 6.7 mg/dL | K ([…], time 14 day): 3.5 meq/L | LDH ([…], time 14 day): 234.8 IU/L | Na ([…], time 14 day): 141 meq/L | PL ([…], time 14 day): 140.8 mg/dL | RALB ([…], time 14 day): 3.4 g/dL | TBIL ([…], time 14 day): 0.1 mg/dL | TC ([…], time 14 day): 70.2 mg/dL | TG ([…], time 14 day): 69.6 mg/dL | TP ([…], time 14 day): 5.9 g/dL | gamma-GTP ([…], time 14 day): 1.4 IU/L | A/G ([…], time 28 day): 1.2 | ALP ([…], time 28 day): 615.8 IU/L | ALT ([…], time 28 day): 39.2 IU/L | AST ([…], time 28 day): 64 IU/L | BUN ([…], time 28 day): 16.8 mg/dL | CRE ([…], time 28 day): 0.5 mg/dL | Ca ([…], time 28 day): 10.5 mg/dL | Cl ([…], time 28 day): 102.6 meq/L | DBIL ([…], time 28 day): 0.068 mg/dL | GLC ([…], time 28 day): 220.6 mg/dL | IP ([…], time 28 day): 5.6 mg/dL | K ([…], time 28 day): 3.5 meq/L | LDH ([…], time 28 day): 188.2 IU/L | Na ([…], time 28 day): 139.6 meq/L | PL ([…], time 28 day): 135.6 mg/dL | RALB ([…], time 28 day): 3.3 g/dL | TBIL ([…], time 28 day): 0.1 mg/dL | TC ([…], time 28 day): 65.6 mg/dL | TG ([…], time 28 day): 98.6 mg/dL | TP ([…], time 28 day): 6 g/dL | gamma-GTP ([…], time 28 day): 1 IU/L
